Measurements as given in ChEMBL document CHEMBL2429721, “Novel 2,6-bis(4-methoxyphenyl)-1-methylpiperidin-4-one oxime esters: synthesis and a new insight into their antioxidant and antimicrobial potential” (Med Chem Res, 2013).

Experiments:
Type in all cases: functional
Escherichia coli [1] = experiment: Antibacterial activity against Escherichia coli ATCC 25922 assessed as growth inhibition at 1000 ug/mL after 24 hrs by agar well plate method; settings: ATCC 25922, 24 h, read-out: DIZ
Candida albicans [2] = experiment: Antifungal activity against Candida albicans MTCC 3017 assessed as growth inhibition at 500 ug/mL after 72 hrs by agar well plate method; settings: MTCC 3017, 72 h, read-out: DIZ
Aspergillus flavus [3] = experiment: Antifungal activity against Aspergillus flavus MTCC 3306 assessed as growth inhibition at 500 ug/mL after 72 hrs by agar well plate method; settings: MTCC 3306, 72 h, read-out: DIZ
Aspergillus flavus [4] = experiment: Antifungal activity against Aspergillus flavus MTCC 3306 assessed as growth inhibition at 1000 ug/mL after 72 hrs by agar well plate method; settings: MTCC 3306, 72 h, read-out: DIZ
Escherichia coli [5] = experiment: Antibacterial activity against Escherichia coli ATCC 25922 assessed as growth inhibition at 500 ug/mL after 24 hrs by agar well plate method; settings: ATCC 25922, 24 h, read-out: DIZ
Pseudomonas aeruginosa [6] = experiment: Antibacterial activity against Pseudomonas aeruginosa ATCC 27853 assessed as growth inhibition at 1000 ug/mL after 24 hrs by agar well plate method; settings: ATCC 27853, 24 h, read-out: DIZ
[7] = Antioxidant activity assessed as cupric ion reducing activity at 10 uM after 30 mins by CUPRAC assay
[8] = Antioxidant activity assessed as ferric ion reducing activity at 10 uM after 20 mins by FRAP assay
[9] = Antifungal activity against Chrysosporium keratinophilum MTCC 2827 assessed as growth inhibition at 500 ug/mL after 72 hrs by agar well plate method
[10] = Antioxidant activity assessed as ABTS free radical scavenging activity after 30 mins
Candida albicans [11] = experiment: Antifungal activity against Candida albicans MTCC 3017 assessed as growth inhibition at 1000 ug/mL after 72 hrs by agar well plate method; settings: MTCC 3017, 72 h, read-out: DIZ
Staphylococcus aureus [12] = experiment: Antibacterial activity against Staphylococcus aureus ATCC 25923 assessed as growth inhibition at 1000 ug/mL after 24 hrs by agar well plate method; settings: ATCC 25923, 24 h, read-out: DIZ
Staphylococcus aureus [13] = experiment: Antibacterial activity against Staphylococcus aureus ATCC 25923 assessed as growth inhibition at 500 ug/mL after 24 hrs by agar well plate method; settings: ATCC 25923, 24 h, read-out: DIZ
[14] = Antifungal activity against Chrysosporium keratinophilum MTCC 2827 assessed as growth inhibition at 1000 ug/mL after 72 hrs by agar well plate method
Pseudomonas aeruginosa [15] = experiment: Antibacterial activity against Pseudomonas aeruginosa ATCC 27853 assessed as growth inhibition at 500 ug/mL after 24 hrs by agar well plate method; settings: ATCC 27853, 24 h, read-out: DIZ
[16] = test system: Radical scavenging activity; experiment: Antioxidant activity assessed as DPPH free radical scavenging activity after 20 mins by UV-visible spectrophotometric analysis

COc1ccc(C2CC(=NOC(=O)c3cc(OC)c(OC)c(OC)c3)CC(c3ccc(OC)cc3)N2C)cc1 (configuration not stated) showed a zone of inhibition at 1000 µg/mL (Escherichia coli [1]) of 4 mm, a zone of inhibition at 500 µg/mL (Candida albicans [2]) of 3 mm and a zone of inhibition at 500 µg/mL (Aspergillus flavus [3]) of 3 mm. It also gave a zone of inhibition at 1000 µg/mL (Aspergillus flavus [4]) of 2 mm, a zone of inhibition at 500 µg/mL (Escherichia coli [5]) of 3 mm and a zone of inhibition at 1000 µg/mL (Pseudomonas aeruginosa [6]) of 5 mm. The Activity [7] was 0.232, the Activity [8] was 0.286 and the inhibition zone (IZ) [9] was 2 mm. For the same compound, the IC50 [10] was 93 µM, the zone of inhibition at 1000 µg/mL (Candida albicans [11]) was 3 mm and the zone of inhibition at 1000 µg/mL (Staphylococcus aureus [12]) was 5 mm. For the same compound, the zone of inhibition at 500 µg/mL (Staphylococcus aureus [13]) was 3 mm, the inhibition zone (IZ) [14] was 5 mm and the zone of inhibition at 500 µg/mL (Pseudomonas aeruginosa [15]) was 3 mm. For the same compound, the IC50 [16] was 71 µM.
Work on COc1ccc(C2CC(=NOC(=O)c3cccc(O)c3)CC(c3ccc(OC)cc3)N2C)cc1 (configuration not stated) yielded a zone of inhibition at 1000 µg/mL (Escherichia coli [1]) of 6 mm, a zone of inhibition at 500 µg/mL (Candida albicans [2]) of 1 mm and a zone of inhibition at 500 µg/mL (Aspergillus flavus [3]) of 0 mm. The zone of inhibition at 1000 µg/mL (Aspergillus flavus [4]) was 1 mm, the zone of inhibition at 500 µg/mL (Escherichia coli [5]) was 5 mm and the zone of inhibition at 1000 µg/mL (Pseudomonas aeruginosa [6]) was 5 mm. It also gave an Activity [7] of 0.265, an Activity [8] of 0.321 and an inhibition zone (IZ) [9] of 0 mm. It also gave an IC50 [10] of 34 µM, a zone of inhibition at 1000 µg/mL (Candida albicans [11]) of 3 mm and a zone of inhibition at 1000 µg/mL (Staphylococcus aureus [12]) of 6 mm. For the same compound, the zone of inhibition at 500 µg/mL (Staphylococcus aureus [13]) was 4 mm, the inhibition zone (IZ) [14] was 1 mm and the zone of inhibition at 500 µg/mL (Pseudomonas aeruginosa [15]) was 3 mm. For the same compound, the IC50 [16] was 21 µM.
With CN[C@@H]1[C@H](O[C@H]2[C@H](O[C@H]3[C@H](O)[C@@H](O)[C@H](N=C(N)N)[C@@H](O)[C@@H]3N=C(N)N)O[C@@H](C)[C@]2(O)C=O)O[C@@H](CO)[C@H](O)[C@H]1O [STREPTOMYCIN] the zone of inhibition at 1000 µg/mL (Escherichia coli [1]) was 16 mm, the zone of inhibition at 500 µg/mL (Escherichia coli [5]) was 10 mm and the zone of inhibition at 1000 µg/mL (Pseudomonas aeruginosa [6]) was 16 mm. For the same compound, the zone of inhibition at 1000 µg/mL (Staphylococcus aureus [12]) was 15 mm, the zone of inhibition at 500 µg/mL (Staphylococcus aureus [13]) was 10 mm and the zone of inhibition at 500 µg/mL (Pseudomonas aeruginosa [15]) was 13 mm.
For COc1ccc(C2CC(=NOC(=O)c3ccccc3OC(C)=O)CC(c3ccc(OC)cc3)N2C)cc1 (configuration not stated), the zone of inhibition at 1000 µg/mL (Escherichia coli [1]) was 4 mm, the zone of inhibition at 500 µg/mL (Candida albicans [2]) was 5 mm and the zone of inhibition at 500 µg/mL (Aspergillus flavus [3]) was 1 mm. It also gave a zone of inhibition at 1000 µg/mL (Aspergillus flavus [4]) of 2 mm, a zone of inhibition at 500 µg/mL (Escherichia coli [5]) of 2 mm and a zone of inhibition at 1000 µg/mL (Pseudomonas aeruginosa [6]) of 5 mm. For the same compound, the Activity [7] was 0.131, the Activity [8] was 0.179 and the inhibition zone (IZ) [9] was 2 mm. It also gave an IC50 [10] of 350 µM, a zone of inhibition at 1000 µg/mL (Candida albicans [11]) of 4 mm and a zone of inhibition at 1000 µg/mL (Staphylococcus aureus [12]) of 5 mm. The zone of inhibition at 500 µg/mL (Staphylococcus aureus [13]) was 2 mm, the inhibition zone (IZ) [14] was 3 mm and the zone of inhibition at 500 µg/mL (Pseudomonas aeruginosa [15]) was 4 mm. For the same compound, the IC50 [16] was 132 µM.
In the case of COc1ccc(C2CC(=NOC(=O)c3ccccc3O)CC(c3ccc(OC)cc3)N2C)cc1 (configuration not stated), the zone of inhibition at 1000 µg/mL (Escherichia coli [1]) is reported as 5 mm, the zone of inhibition at 500 µg/mL (Candida albicans [2]) is reported as 2 mm and the zone of inhibition at 500 µg/mL (Aspergillus flavus [3]) is reported as 2 mm. For the same compound, the zone of inhibition at 1000 µg/mL (Aspergillus flavus [4]) was 3 mm, the zone of inhibition at 500 µg/mL (Escherichia coli [5]) was 3 mm and the zone of inhibition at 1000 µg/mL (Pseudomonas aeruginosa [6]) was 4 mm. For the same compound, the Activity [7] was 0.272, the Activity [8] was 0.33 and the inhibition zone (IZ) [9] was 3 mm. The IC50 [10] was 29 µM, the zone of inhibition at 1000 µg/mL (Candida albicans [11]) was 6 mm and the zone of inhibition at 1000 µg/mL (Staphylococcus aureus [12]) was 4 mm. The zone of inhibition at 500 µg/mL (Staphylococcus aureus [13]) was 4 mm, the inhibition zone (IZ) [14] was 5 mm and the zone of inhibition at 500 µg/mL (Pseudomonas aeruginosa [15]) was 3 mm. For the same compound, the IC50 [16] was 19 µM.
With COc1ccc(C(=O)ON=C2CC(c3ccc(OC)cc3)N(C)C(c3ccc(OC)cc3)C2)cc1 (configuration not stated) the zone of inhibition at 1000 µg/mL (Escherichia coli [1]) was 2 mm, the zone of inhibition at 500 µg/mL (Candida albicans [2]) was 5 mm and the zone of inhibition at 500 µg/mL (Aspergillus flavus [3]) was 4 mm. It also gave a zone of inhibition at 1000 µg/mL (Aspergillus flavus [4]) of 5 mm, a zone of inhibition at 500 µg/mL (Escherichia coli [5]) of 1 mm and a zone of inhibition at 1000 µg/mL (Pseudomonas aeruginosa [6]) of 4 mm. For the same compound, the Activity [7] was 0.245, the Activity [8] was 0.31 and the inhibition zone (IZ) [9] was 3 mm. The IC50 [10] was 68 µM, the zone of inhibition at 1000 µg/mL (Candida albicans [11]) was 7 mm and the zone of inhibition at 1000 µg/mL (Staphylococcus aureus [12]) was 3 mm. For the same compound, the zone of inhibition at 500 µg/mL (Staphylococcus aureus [13]) was 1 mm, the inhibition zone (IZ) [14] was 3 mm and the zone of inhibition at 500 µg/mL (Pseudomonas aeruginosa [15]) was 3 mm. For the same compound, the IC50 [16] was 32 µM.
Work on OC(Cn1cncn1)(Cn1cncn1)c1ccc(F)cc1F [FLUCONAZOLE] yielded a zone of inhibition at 500 µg/mL (Candida albicans [2]) of 20 mm, a zone of inhibition at 500 µg/mL (Aspergillus flavus [3]) of 11 mm and a zone of inhibition at 1000 µg/mL (Aspergillus flavus [4]) of 13 mm. It also gave an inhibition zone (IZ) [9] of 15 mm, a zone of inhibition at 1000 µg/mL (Candida albicans [11]) of 22 mm and an inhibition zone (IZ) [14] of 17 mm.
